These results are taken from ChEMBL document CHEMBL1157865, “Synthesis and evaluation of SQ109 analogues as potential anti-tuberculosis candidates” (2010).

In brackets after ≈: the same amount, converted by molar mass.

The test system of the test is Mycobacterium tuberculosis. Briefly: Antimycobacterial activity against multidrug-resistant Mycobacterium tuberculosis XDR 173 by BACTEC 460 radiometric method. Format: functional.
For `CC(C)CCCC(C)CCNCCNC12CC3CC(CC(C3)C1)C2` (centres undefined), it took 0.5 µM (≈ 0.167 µg/mL) to inhibit growth (MIC). In other words, the sub-micromolar range. The same measure for `CC(C)=CCC/C(C)=C/CC/C(C)=C/CNCCNC1C2CC3CC(C2)CC1C3` (centres undefined): 0.25 µM (≈ 0.0997 µg/mL).

Turning to `CC(C)CCCC(C)CCCC(C)CCNCCNC1C2CC3CC(C2)CC1C3` (centres undefined), the MIC (commonly the lowest concentration found to suppress growth) amounted to 1 µM (≈ 0.405 µg/mL). Compared with the last compound, the MIC is about 4-fold higher. The same measure for `CC(C)=CCC/C(C)=C/CNCCNC1C2CC3CC(C2)CC1C3` (centres undefined) [SQ109]: 0.5 µM (≈ 0.165 µg/mL).
